Laboratory results as given in patent US20070117743A1, “New antitumoral compounds” (priority 2003, published 2007).
Where a SMILES comes first, the peptide text is derived from it. Bridges are numbered along the chain shown (N, C = ends). [ ]: non-standard residue; d: D form. The star is where a group is joined. d(aIle) = CC[C@H](C)[C@@H](N)C(=O)O; d(aThr) = C[C@@H](O)[C@@H](N)C(=O)O; Hexanoyl(5-Me) = CC(C)CCCC(=O)*; Orn = NCCC[C@H](N)C(=O)O; Dhb = C/C=C(\N)C(=O)O

How the values were obtained:
Assay type in all cases: cell-based, human
A-549 = experiment: SRB colorimetric assay of cell growth and viability, A-549; conditions: 48 hours exposure; for GI50: read-out: GI50 A-549; for CC50: read-out: LC50 A-549
K-562 = experiment: SRB colorimetric assay of cell growth and viability, K-562; conditions: 48 hours exposure; for CC50: read-out: LC50 K-562
PANC-1 = experiment: SRB colorimetric assay of cell growth and viability, PANC-1; conditions: 48 hours exposure; for CC50: read-out: LC50 PANC-1
SK-MEL-28 = experiment: SRB colorimetric assay of cell growth and viability, SK-MEL-28; conditions: 48 hours exposure; for CC50: read-out: LC50 MEL-28
HT-29 = experiment: SRB colorimetric assay of cell growth and viability, HT-29; conditions: 48 hours exposure; for GI50: read-out: GI50 HT-29; for CC50: read-out: LC50 HT-29
DU-145 = experiment: SRB colorimetric assay of cell growth and viability, DU-145; conditions: 48 hours exposure
IGROV-ET = experiment: SRB colorimetric assay of cell growth and viability, IGROV-ET; conditions: 48 hours exposure; for CC50: read-out: LC50 IGROV-ET
LoVo-Dox = experiment: SRB colorimetric assay of cell growth and viability, LoVo-Dox; conditions: 48 hours exposure; for CC50: read-out: LC50 LOVO-DOX
Procedure, shortened: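 Cells in RPMI 1640 with 10% FBS were seeded at 5×10^3 per well and left 18 hours drug-free before compounds (10 to 10^−8 μg/mL in DMSO:EtOH:PBS 0.5:0.5:99) were added for 48 hours. TCA-fixed cells were stained with SRB and read at 490 nm; triplicate wells gave GI, TGI and LC.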

LNCaP = experiment: SRB colorimetric assay of cell growth and viability, LNCaP; conditions: 48 hours exposure; for GI50: read-out: GI50 LN-caP; for CC50: read-out: LC50 LN-caP
IGROV-1 = experiment: SRB colorimetric assay of cell growth and viability, IGROV-1; conditions: 48 hours exposure
LoVo = experiment: SRB colorimetric assay of cell growth and viability, LoVo; conditions: 48 hours exposure; for CC50: read-out: LC50 LOVO
HeLa = experiment: SRB colorimetric assay of cell growth and viability, HeLa; conditions: 48 hours exposure; for CC50: read-out: LC50 HELA
HeLa-APL = experiment: SRB colorimetric assay of cell growth and viability, HeLa-APL; conditions: 48 hours exposure; for CC50: read-out: LC50 HELA-APL
SK-BR-3 = experiment: SRB colorimetric assay of cell growth and viability, SK-BR-3; conditions: 48 hours exposure

Question: Which results are given for `C/C=C1\NC(=O)[C@H](Cc2ccccc2)NC(=O)[C@@H](C(C)C)NC(=O)[C@@H]([C@@H](C)CC)NC(=O)[C@H](NC(=O)[C@H](NC(=O)[C@H](CCCN)NC(=O)[C@H]2CCCN2C(=O)[C@H](NC(=O)[C@H](CCCN)NC(=O)[C@@H](NC(=O)[C@H](NC(=O)CCCC(C)C)C(C)C)[C@@H](C)O)C(C)C)[C@@H](C)CC)[C@@H](C)OC(=O)[C@H](C(C)C)NC1=O` [Compound 49, [Orn^11]-KF] ({Hexanoyl(5-Me)}-[dV]T[Orn][dV][dP][Orn][d(aIle)][d(aThr)][d(aIle)][dV]F[Dhb]V; ester 8-C)?
Answer: TGI A-549 (A-549): 6.70E−06 Molar; GI50 (A-549): 2610 nM; CC50 (A-549): 6.7 µM; GI50 (K-562): 150 nM; TGI K-562 (K-562): 1.67E−06 Molar; CC50 (K-562): 6.7 µM; GI50 (PANC-1): 1310 nM; TGI PANC-1 (PANC-1): 3.09E−06 Molar; CC50 (PANC-1): 6.7 µM; GI50 (SK-MEL-28): 1330 nM; TGI MEL-28 (SK-MEL-28): 2.50E−06 Molar; CC50 (SK-MEL-28): 4.69 µM; TGI HT-29 (HT-29): 3.74E−06 Molar; GI50 (HT-29): 1580 nM; CC50 (HT-29): 6.7 µM; GI50 (DU-145): 1090 nM; LC50 (concentration causing 50% net cell kill) (DU-145): 5.75 µM; TGI DU-145 (DU-145): 2.50E−06 Molar; GI50 (IGROV-ET): 1910 nM; TGI IGROV-ET (IGROV-ET): 5.15E−06 Molar; CC50 (IGROV-ET): 6.7 µM; GI50 (LoVo-Dox): 3220 nM; TGI LOVO-DOX (LoVo-Dox): 6.70E−06 Molar; CC50 (LoVo-Dox): 6.7 µM; TGI LN-caP (LNCaP): 6.70E−06 Molar; GI50 (LNCaP): 2200 nM; CC50 (LNCaP): 6.7 µM; GI50 (IGROV-1): 1270 nM; LC50 (concentration causing 50% net cell killing) (IGROV-1): 5.97 µM; TGI IGROV (IGROV-1): 2.75E−06 Molar; GI50 (LoVo): 1470 nM; TGI LOVO (LoVo): 3.80E−06 Molar; CC50 (LoVo): 6.7 µM; GI50 (HeLa): 1.1 µM; TGI HELA (HeLa): 2.20E−06 Molar; CC50 (HeLa): 4.4 µM; GI50 (HeLa-APL): 1070 nM; TGI HELA-APL (HeLa-APL): 2.52E−06 Molar; CC50 (HeLa-APL): 5.95 µM; GI50 (SK-BR-3): 1940 nM; LC50 (SK-BR-3): 6.7 µM; TGI SK-BR-3 (SK-BR-3): 5.57E−06 Molar

Question: Which results are given for `C/C=C1\NC(=O)[C@H](Cc2ccccc2)NC(=O)[C@@H](C(C)C)NC(=O)[C@@H]([C@@H](C)CC)NC(=O)[C@H](NC(=O)[C@H](NC(=O)[C@H](CCCN)NC(=O)[C@H]2CCCN2C(=O)[C@H](NC(=O)[C@@H](NC(=O)[C@@H](NC(=O)[C@H](NC(=O)CCCC(C)C)C(C)C)[C@@H](C)O)[C@@H](C)O)C(C)C)[C@@H](C)CC)[C@@H](C)OC(=O)[C@H](C(C)C)NC1=O` [Compound 50, [Thr^11]-KF] ({Hexanoyl(5-Me)}-[dV]TT[dV][dP][Orn][d(aIle)][d(aThr)][d(aIle)][dV]F[Dhb]V; ester 8-C)?
Answer: TGI A-549 (A-549): 6.76E−06 Molar; GI50 (A-549): ≥ 6760 nM; CC50 (A-549): ≥ 6.76 µM; GI50 (K-562): ≥ 6760 nM; TGI K-562 (K-562): 6.76E−06 Molar; CC50 (K-562): ≥ 6.76 µM; GI50 (PANC-1): 4160 nM; TGI PANC-1 (PANC-1): 6.76E−06 Molar; CC50 (PANC-1): ≥ 6.76 µM; GI50 (SK-MEL-28): ≥ 6760 nM; TGI MEL-28 (SK-MEL-28): 6.76E−06 Molar; CC50 (SK-MEL-28): ≥ 6.76 µM; TGI HT-29 (HT-29): 6.76E−06 Molar; GI50 (HT-29): 3760 nM; CC50 (HT-29): ≥ 6.76 µM; GI50 (DU-145): ≥ 6700 nM; LC50 (concentration causing 50% net cell kill) (DU-145): ≥ 6.76 µM; TGI DU-145 (DU-145): 6.76E−06 Molar; GI50 (IGROV-ET): 2700 nM; TGI IGROV-ET (IGROV-ET): 6.76E−06 Molar; CC50 (IGROV-ET): ≥ 6.76 µM; GI50 (LoVo-Dox): 1270 nM; TGI LOVO-DOX (LoVo-Dox): 2.54E−06 Molar; CC50 (LoVo-Dox): 5.1 µM; TGI LN-caP (LNCaP): 6.76E−06 Molar; GI50 (LNCaP): ≥ 6760 nM; CC50 (LNCaP): ≥ 6.76 µM; GI50 (IGROV-1): 3760 nM; LC50 (concentration causing 50% net cell killing) (IGROV-1): ≥ 6.76 µM; TGI IGROV (IGROV-1): 6.76E−06 Molar; GI50 (LoVo): 1210 nM; TGI LOVO (LoVo): 2.80E−06 Molar; CC50 (LoVo): 6.47 µM; GI50 (HeLa): 5.58 µM; TGI HELA (HeLa): 6.76E−06 Molar; CC50 (HeLa): ≥ 6.76 µM; GI50 (HeLa-APL): ≥ 6760 nM; TGI HELA-APL (HeLa-APL): 6.76E−06 Molar; CC50 (HeLa-APL): ≥ 6.76 µM; GI50 (SK-BR-3): 899 nM; LC50 (SK-BR-3): ≥ 6.76 µM; TGI SK-BR-3 (SK-BR-3): 2.58E−06 Molar
